Values quoted from earlier work, collected in patent US20060030591A1 (Wyeth, priority 2004, published 2006).

How the values were obtained:
[1] = tested on: uterus; conditions: qualitative
[2] = tested on: tamoxifen-sensitive cells lines; conditions: other studies, qualitative
[3] = tested on: tamoxifen-resistent MCF-7 breast cancer xenografts; conditions: recent preclinical studies, qualitative

SMILES: Cc1c(-c2ccc(O)cc2)n(Cc2ccc(OCCN3CCCCC3)cc2)c2ccc(O)cc12.Cl [pipindoxifene, 2-(4-hydroxyphenyl)-3-methyl-1-[4-(2-piperidin-1-yl-ethoxy)-benzyl]-1H-indol-5-ol hydrochloride]
- effect in the uterus ([1]; Greenberger, et al., Clin. Cancer Res. (2001)): antiestrogenic in the uterus
- uterotropic activity ([1]; tissue selective estrogenic effects): little or no uterotropic activity
- effectiveness in tamoxifen-sensitive cells lines [2]: show effectiveness
- growth of tamoxifen-resistent MCF-7 breast cancer xenografts [3]: inhibited the growth
